# Source: patent US20250205344A1, “2,4-DIOXOTETRAHYDROPYRIMIDINYL DERATIVES AS DEGRONS IN PROTACS” (GLAXOSMITHKLINE INTELLECTUAL PROPERTY DEVELOPMENT LIMITED, priority 2022, published 2025)
# Structures can show the parent of a compound that is named as a salt.
# Molecular target: T1, Androgen Receptor (Homo sapiens, UniProt P10275, T878A)
# T1 construct: the AR gene was modified, using CRISPR/Cas9 editing, so the expressed AR protein included an 11 amino acid HiBiT tag; endogenous in cells; host or cells: clonal LnCaP-derived line, AR gene edited by CRISPR/Cas9
# T1 sequence (P10275 whole entry T878A): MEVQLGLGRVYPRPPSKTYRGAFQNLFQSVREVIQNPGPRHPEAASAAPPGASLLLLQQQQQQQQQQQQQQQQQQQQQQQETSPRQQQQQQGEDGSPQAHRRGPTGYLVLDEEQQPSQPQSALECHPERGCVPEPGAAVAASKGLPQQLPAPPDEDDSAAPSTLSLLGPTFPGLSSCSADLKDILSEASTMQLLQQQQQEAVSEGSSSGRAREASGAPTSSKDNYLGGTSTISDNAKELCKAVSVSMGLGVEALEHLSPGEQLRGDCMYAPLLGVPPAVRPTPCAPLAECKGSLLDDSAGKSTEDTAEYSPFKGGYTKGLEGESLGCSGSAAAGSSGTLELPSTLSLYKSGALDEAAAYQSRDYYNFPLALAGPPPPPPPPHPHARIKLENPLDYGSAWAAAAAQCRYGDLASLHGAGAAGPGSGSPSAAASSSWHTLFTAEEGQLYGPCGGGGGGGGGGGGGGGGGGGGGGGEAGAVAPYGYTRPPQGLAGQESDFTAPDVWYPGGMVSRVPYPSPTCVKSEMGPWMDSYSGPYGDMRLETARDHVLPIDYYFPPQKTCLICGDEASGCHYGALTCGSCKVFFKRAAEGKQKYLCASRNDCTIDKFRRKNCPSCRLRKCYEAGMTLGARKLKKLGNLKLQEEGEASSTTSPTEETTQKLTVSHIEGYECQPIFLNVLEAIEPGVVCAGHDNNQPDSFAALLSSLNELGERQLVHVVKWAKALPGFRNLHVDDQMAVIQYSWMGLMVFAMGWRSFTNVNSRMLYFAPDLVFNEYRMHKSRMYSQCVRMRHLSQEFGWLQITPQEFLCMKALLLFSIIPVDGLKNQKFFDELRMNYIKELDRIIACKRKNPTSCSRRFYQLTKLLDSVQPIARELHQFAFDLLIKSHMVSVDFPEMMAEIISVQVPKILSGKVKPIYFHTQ
# T1 sequence (Q96SW2 whole entry partner): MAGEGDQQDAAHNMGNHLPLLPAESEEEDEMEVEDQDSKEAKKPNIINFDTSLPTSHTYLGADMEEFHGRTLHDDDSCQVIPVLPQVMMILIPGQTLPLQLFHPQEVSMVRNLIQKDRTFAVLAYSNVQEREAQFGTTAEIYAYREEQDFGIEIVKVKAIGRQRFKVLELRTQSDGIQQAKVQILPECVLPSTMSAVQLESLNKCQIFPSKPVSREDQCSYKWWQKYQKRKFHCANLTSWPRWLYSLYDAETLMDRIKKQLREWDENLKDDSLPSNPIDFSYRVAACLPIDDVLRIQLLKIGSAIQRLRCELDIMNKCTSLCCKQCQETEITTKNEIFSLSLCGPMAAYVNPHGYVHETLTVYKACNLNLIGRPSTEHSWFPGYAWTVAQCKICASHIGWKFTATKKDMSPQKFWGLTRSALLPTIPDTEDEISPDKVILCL
# T1 sequence (Q16531 whole entry partner): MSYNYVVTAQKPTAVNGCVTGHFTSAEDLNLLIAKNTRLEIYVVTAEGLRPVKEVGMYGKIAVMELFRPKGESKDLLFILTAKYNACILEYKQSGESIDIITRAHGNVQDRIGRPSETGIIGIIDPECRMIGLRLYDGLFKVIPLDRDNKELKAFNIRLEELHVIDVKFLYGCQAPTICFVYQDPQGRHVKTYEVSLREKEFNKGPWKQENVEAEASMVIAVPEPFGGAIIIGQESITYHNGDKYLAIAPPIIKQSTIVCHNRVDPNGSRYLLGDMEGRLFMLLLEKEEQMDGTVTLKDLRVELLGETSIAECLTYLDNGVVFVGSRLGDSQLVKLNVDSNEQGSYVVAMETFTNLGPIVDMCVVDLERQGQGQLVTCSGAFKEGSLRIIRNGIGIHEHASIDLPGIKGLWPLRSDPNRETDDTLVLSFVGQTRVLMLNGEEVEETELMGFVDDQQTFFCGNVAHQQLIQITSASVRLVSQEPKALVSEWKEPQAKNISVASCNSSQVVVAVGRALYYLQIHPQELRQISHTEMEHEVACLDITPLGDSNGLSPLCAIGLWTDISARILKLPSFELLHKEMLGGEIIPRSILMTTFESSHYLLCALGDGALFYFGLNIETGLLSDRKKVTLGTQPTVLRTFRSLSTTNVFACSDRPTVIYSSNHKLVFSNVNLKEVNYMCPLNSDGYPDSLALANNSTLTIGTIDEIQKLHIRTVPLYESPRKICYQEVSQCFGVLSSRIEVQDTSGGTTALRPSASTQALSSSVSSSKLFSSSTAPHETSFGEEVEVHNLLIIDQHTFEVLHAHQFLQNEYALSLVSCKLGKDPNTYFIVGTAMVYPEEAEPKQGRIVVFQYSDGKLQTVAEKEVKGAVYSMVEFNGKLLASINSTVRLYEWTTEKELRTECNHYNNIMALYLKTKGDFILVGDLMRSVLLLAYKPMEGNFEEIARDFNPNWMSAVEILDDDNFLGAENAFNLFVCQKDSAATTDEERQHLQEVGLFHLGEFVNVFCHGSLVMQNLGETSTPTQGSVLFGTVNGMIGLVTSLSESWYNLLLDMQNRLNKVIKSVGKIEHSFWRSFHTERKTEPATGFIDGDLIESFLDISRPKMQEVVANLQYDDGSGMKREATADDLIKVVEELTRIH
# Test: Androgen Receptor Degradation Assay (Nano-Glo HiBiT)
# Format: cell-based
# Conditions: HiBiT-tagged AR in human LnCaP cells, 18 h
# Experimental: Degradation of Androgen Receptor protein in human LnCaP cells treated with PROTACs was quantified using the Nano-Glo® HiBiT Lytic Detection System (Promega) in 384 well assay plate format. A clonal LnCaP derived cell line was first established in which the AR gene was modified, using CRISPR/Cas9 editing, so the expressed AR protein included an 11 amino acid HiBiT tag at its amino-terminus. 10 mM DMSO stock solutions of PROTACs were prepared and diluted across an 11 concentration, 3 fold increment range, and 25 nL dispensed into a white opaque bottomed 384 well assay plate (Thermofisher) using an acoustic ECHO dispenser (Labcyte). […] For the assay, cells were detached from flask and resuspended with assay medium (FluoroBrite™ DMEM supplemented with 10% heat inactivated FBS, penicillin 50 U/mL and streptomycin 50 ug/mL (Thermofisher)). The cell suspension was centrifuged at 400 g for 5 min and the pellet resuspended in assay medium. 25 μL of cell suspension containing 10,000 cells was dispensed into each well of the assay plate containing the test compounds, which was then incubated for 18 h at 37° C./5% CO2. Control wells were included on each assay plate, with assay medium without cells being the no AR remaining 100% effect control, and cells treated with DMSO vehicle only, without PROTAC, the 0% effect control. 25 μL of Nano-Glo® HiBiT lysis buffer supplemented with LgBiT protein and Nano-Glo® substrate (Promega) was added to each well and the plate shaken at 500 rpm for 10 min at room temperature. The intensity of luminescence was measured using a PHERAstar microplate reader (BMG Labtech) and the % AR protein remaining in each well calculated by normalising the raw luminescence value to the above control wells. Parameters corresponding to the potency and efficacy estimates of the PROTACs were obtained from these normalised luminescence values using software (IDBS ActivityBase). These included the DC50 and the Dmax estimates. Two versions of the DC50, called relative DC50 and absolute DC50, were typically generated. These are the inflection point of a fitted 4 parameter sigmoidal response curve and the interpolated concentration of PROTAC corresponding to 50% of the protein being degraded, respectively. The Dmax parameter was the maximum experimentally observed degradation and the asymptote max parameter the fitted response curve asymptote maximum.
row,Structure (SMILES),mean relative pDC50
1,"C[C@@H]1CN(C(=O)Nc2ccc(N3CCC(CCN4CCC(n5ncc6c(N7CCC(=O)NC7=O)cncc65)CC4)CC3)nc2)[C@@H](C)CN1c1ccc(C#N)c(Cl)c1.O=CO [EAR133, (2S,5R)-4-(3-Chloro-4-cyanophenyl)-N-(6-(4-(2-(4-(4-(2,4-dioxotetrahydropyrimidin-1(2H)-yl)-1H-pyrazolo[3,4-c]pyridin-1-yl)piperidin-1-yl)ethyl)piperidin-1-yl)pyridin-3-yl)-2,5-dimethylpiperazine-1-carboxamide, formic acid salt]",5.94

# Same assay, conditions: LNCaP, 18 h, HiBiT-tagged AR in human LnCaP cells, read-out: mean asymptote max
row,Structure (SMILES),Dmax
1,"C[C@@H]1CN(c2ccc(C#N)c(Cl)c2)[C@@H](C)CN1C(=O)Nc1cnc(N2CCC(CN3CCC(n4ccc5c(N6CCC(=O)NC6=O)cncc54)CC3)CC2)nc1 [EAR106, (2R,5S)-4-(3-Chloro-4-cyanophenyl)-N-(2-(4-((4-(4-(2,4-dioxotetrahydropyrimidin-1(2H)-yl)-1H-pyrrolo[2,3-c]pyridin-1-yl)piperidin-1-yl)methyl)piperidin-1-yl)pyrimidin-5-yl)-2,5-dimethylpiperazine-1-carboxamide]",≥ 50%
2,"C[C@@H]1CN(C(=O)Nc2ccc(N3CCC(CCN4CCC(n5ncc6c(N7CCC(=O)NC7=O)cncc65)CC4)CC3)nc2)[C@@H](C)CN1c1ccc(C#N)c(Cl)c1.O=CO [EAR133, (2S,5R)-4-(3-Chloro-4-cyanophenyl)-N-(6-(4-(2-(4-(4-(2,4-dioxotetrahydropyrimidin-1(2H)-yl)-1H-pyrazolo[3,4-c]pyridin-1-yl)piperidin-1-yl)ethyl)piperidin-1-yl)pyridin-3-yl)-2,5-dimethylpiperazine-1-carboxamide, formic acid salt]",≥ 50%
3,"CC(C)n1ccc2c(N3CCC(=O)NC3=O)cc(C(=O)N3CCC4(CCN(CCCc5ccc(C(=O)N[C@H]6CC[C@H](Oc7ccc(C#N)c(Cl)c7)CC6)cc5)CC4)CC3)cc21 [EAR85, N-((1r,4r)-4-(3-Chloro-4-cyanophenoxy)cyclohexyl)-4-(3-(9-(4-(2,4-dioxotetrahydropyrimidin-1(2H)-yl)-1-isopropyl-1H-indole-6-carbonyl)-3,9-diazaspiro[5.5]undecan-3-yl)propyl)benzamide]",≥ 50%
4,"N#Cc1ccc(O[C@H]2CC[C@H](NC(=O)c3ccc(N4CCC(CN5CCC(n6ccc7c(N8CCC(=O)NC8=O)c(F)ccc76)CC5)CC4)nn3)CC2)cc1Cl [EAR170, N-((1r,4r)-4-(3-Chloro-4-cyanophenoxy)cyclohexyl)-6-(4-((4-(4-(2,4-dioxotetrahydropyrimidin-1(2H)-yl)-5-fluoro-1H-indol-1-yl)piperidin-1-yl)methyl)piperidin-1-yl)pyridazine-3-carboxamide, hydrochloride]",≥ 50%
5,"N#Cc1ccc(O[C@H]2CC[C@H](NC(=O)c3ccc(N4CCC(CN5CCC(n6ncc7c(N8CCC(=O)NC8=O)cncc76)CC5)CC4)nn3)CC2)cc1Cl [EAR53, N-((1r,4r)-4-(3-Chloro-4-cyanophenoxy)cyclohexyl)-6-(4-((4-(4-(2,4-dioxotetrahydropyrimidin-1(2H)-yl)-1H-pyrazolo[3,4-c]pyridin-1-yl)piperidin-1-yl)methyl)piperidin-1-yl)pyridazine-3-carboxamide hydrochloride]",≥ 50%
6,"N#Cc1ccc(O[C@H]2CC[C@H](NC(=O)c3cnc(N4CCC(CN5CCC(n6ccc7c(N8CCC(=O)NC8=O)cncc76)CC5)CC4)nc3)CC2)cc1C(F)(F)F [AR17, N-((1r,4r)-4-(4-Cyano-3-(trifluoromethyl)phenoxy)cyclohexyl)-2-(4-((4-(4-(2,4-dioxotetrahydropyrimidin-1(2H)-yl)-1H-pyrrolo[2,3-c]pyridin-1-yl)piperidin-1-yl)methyl)piperidin-1-yl)pyrimidine-5-carboxamide]",≥ 50%
7,"N#Cc1ccc(O[C@H]2CC[C@H](NC(=O)c3ccc(N4CC(CN5CCC(n6ccc7c(N8CCC(=O)NC8=O)cccc76)CC5)C4)nn3)CC2)cc1Cl [EAR72, N-((1r,4r)-4-(3-Chloro-4-cyanophenoxy)cyclohexyl)-6-(3-((4-(4-(2,4-dioxotetrahydropyrimidin-1(2H)-yl)-1H-indol-1-yl)piperidin-1-yl)methyl)azetidin-1-yl)pyridazine-3-carboxamide hydrochloride]",≥ 50%
8,"CC1(C)C(=O)N(c2ccc(C#N)c(C(F)(F)F)c2)C(=S)N1c1ccc(N2CCC(N3CCC(n4ccc5c(N6CCC(=O)NC6=O)cncc54)CC3)CC2)cc1 [EAR96, 4-(3-(4-(4-(4-(2,4-Dioxotetrahydropyrimidin-1(2H)-yl)-1H-pyrrolo[2,3-c]pyridin-1-yl)-[1,4′-bipiperidin]-1′-yl)phenyl)-4,4-dimethyl-5-oxo-2-thioxoimidazolidin-1-yl)-2-(trifluoromethyl)benzonitrile formate]",≥ 50%
9,"N#Cc1ccc(O[C@H]2CC[C@H](NC(=O)c3cccc(C4CCN(C(=O)CN5CCC(n6ccc7c(N8CCC(=O)NC8=O)cccc76)CC5)CC4)c3)CC2)cc1Cl [AR3, N-((1r,4r)-4-(3-Chloro-4-cyanophenoxy)cyclohexyl)-3-(1-(2-(4-(4-(2,4-dioxotetrahydropyrimidin-1(2H)-yl)-1H-indol-1-yl)piperidin-1-yl)acetyl)piperidin-4-yl)benzamide]",≥ 50%
10,"N#Cc1ccc(O[C@H]2CC[C@H](NC(=O)c3ccc(N4CCC[C@@H](CN5CCC(n6ncc7c(N8CCC(=O)NC8=O)cccc76)CC5)C4)nn3)CC2)cc1Cl (single isomer, unassigned) [EAR137]",≥ 50%
11,"CC(C)n1ccc2c(N3CCC(=O)NC3=O)cc(C(=O)N3CCCC34CCN(CCCCCCc3ccc(C(=O)N[C@H]5CC[C@H](Oc6ccc(C#N)c(Cl)c6)CC5)cc3)CC4)cc21 [EAR86, N-((1r,4r)-4-(3-Chloro-4-cyanophenoxy)cyclohexyl)-4-(6-(1-(4-(2,4-dioxotetrahydropyrimidin-1(2H)-yl)-1-isopropyl-1H-indole-6-carbonyl)-1,8-diazaspiro[4.5]decan-8-yl)hexyl)benzamide]",≥ 50%

# Continued, values first:
row,Dmax,Structure (SMILES)
1,≥ 50%,"CC1(C)[C@H](NC(=O)c2ccc(N3CCC(CN4CCC(n5ccc6c(N7CCC(=O)NC7=O)nccc65)CC4)CC3)nc2)C(C)(C)[C@H]1Oc1cnc(C#N)c(Cl)c1 [EAR259, N-((1r,3r)-3-((5-Chloro-6-cyanopyridin-3-yl)oxy)-2,2,4,4-tetramethylcyclobutyl)-6-(4-((4-(4-(2,4-dioxotetrahydropyrimidin-1(2H)-yl)-1H-pyrrolo[3,2-c]pyridin-1-yl)piperidin-1-yl)methyl)piperidin-1-yl)nicotinamide]"
2,≥ 50%,"C[C@H]1CN(c2ccc(C(=O)N[C@H]3CC[C@H](Oc4ccc(C#N)c(Cl)c4)CC3)nn2)CC[C@H]1CN1CCC(n2ncc3c(N4CCC(=O)NC4=O)cccc32)CC1 [EAR227, N-((1r,4R)-4-(3-chloro-4-cyanophenoxy)cyclohexyl)-6-((3R,4R)-4-((4-(4-(2,4-dioxotetrahydropyrimidin-1(2H)-yl)-1H-indazol-1-yl)piperidin-1-yl)methyl)-3-methylpiperidin-1-yl)pyridazine-3-carboxamide]"
3,≥ 50%,"N#Cc1ccc(O[C@H]2CC[C@H](NC(=O)c3ccc(N4CCC(CN5CCC(n6ncc7c(N8CCC(=O)NC8=O)nccc76)CC5)CC4)nn3)CC2)cc1C(F)(F)F [EAR209, N-((1r,4r)-4-(4-cyano-3-(trifluoromethyl)phenoxy)cyclohexyl)-6-(4-((4-(4-(2,4-dioxotetrahydropyrimidin-1(2H)-yl)-1H-pyrazolo[4,3-c]pyridin-1-yl)piperidin-1-yl)methyl)piperidin-1-yl)pyridazine-3-carboxamide]"
4,≥ 50%,"N#Cc1ccc(O[C@H]2CC[C@H](NC(=O)c3ccc(N4CC5CCC(C4)C5CN4CCC(n5ncc6c(N7CCC(=O)NC7=O)cccc65)CC4)nn3)CC2)cc1Cl (stereo partly drawn) [EAR226, N-((1r,4r)-4-(3-chloro-4-cyanophenoxy)cyclohexyl)-6-(8-((4-(4-(2,4-dioxotetrahydropyrimidin-1(2H)-yl)-1H-indazol-1-yl)piperidin-1-yl)methyl)-3-azabicyclo[3.2.1]octan-3-yl)pyridazine-3-carboxamide]"
5,≥ 50%,"N#Cc1ccc(O[C@H]2CC[C@H](NC(=O)c3cnc(N4CCC(CN5CCC(n6ncc7c(N8CCC(=O)NC8=O)cc(F)cc76)CC5)CC4)cn3)CC2)cc1Cl [EAR217, N-((1r,4r)-4-(3-chloro-4-cyanophenoxy)cyclohexyl)-5-(4-((4-(4-(2,4-dioxotetrahydropyrimidin-1(2H)-yl)-6-fluoro-1H-indazol-1-yl)piperidin-1-yl)methyl)piperidin-1-yl)pyrazine-2-carboxamide hydrochloride]"
6,≥ 50%,"N#Cc1ccc(O[C@H]2CC[C@H](NC(=O)c3ccc(N4CCC(CN5CCC(n6ccc7c(N8CCC(=O)NC8=O)nccc76)CC5)CC4)nn3)CC2)cc1C(F)(F)F [EAR204, N-((1r,4r)-4-(4-Cyano-3-(trifluoromethyl)phenoxy)cyclohexyl)-6-(4-((4-(4-(2,4-dioxotetrahydropyrimidin-1(2H)-yl)-1H-pyrrolo[3,2-c]pyridin-1-yl)piperidin-1-yl)methyl)piperidin-1-yl)pyridazine-3-carboxamide]"
